From PubChem BioAssay (NCI)
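Briefly, cells in 96-well plates were exposed to five compound concentrations for 48 h, and endpoints were estimated by linear interpolation. TGI: concentration producing complete growth inhibition.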

Legend:
Assay in all cases: DTP human tumour cell line panel, 48 h
HCT-15 colon = tested on: HCT-15 colon
KM12 colon = tested on: KM12 colon
LOX IMVI melanoma = tested on: LOX IMVI melanoma
MDA-MB-231 breast = tested on: MDA-MB-231 breast
HT29 colon = tested on: HT29 colon
U251 CNS = tested on: U251 CNS
ACHN renal = tested on: ACHN renal
RPMI-8226 leukemia = tested on: RPMI-8226 leukemia
MALME-3M melanoma = tested on: MALME-3M melanoma
K-562 leukemia = tested on: K-562 leukemia
DU-145 prostate = tested on: DU-145 prostate
IGROV1 ovarian = tested on: IGROV1 ovarian
TK-10 renal = tested on: TK-10 renal
A549 NSCLC = tested on: A549 NSCLC
MOLT-4 leukemia = tested on: MOLT-4 leukemia
UACC-257 melanoma = tested on: UACC-257 melanoma
HOP-92 NSCLC = tested on: HOP-92 NSCLC
SK-OV-3 ovarian = tested on: SK-OV-3 ovarian
NCI-H522 lung = tested on: NCI-H522 lung

Compound | TGI (HCT-15 colon) | TGI (KM12 colon) | TGI (LOX IMVI melanoma) | TGI (MDA-MB-231 breast) | TGI (HT29 colon) | TGI (U251 CNS) | TGI (ACHN renal) | TGI (RPMI-8226 leukemia) | TGI (MALME-3M melanoma) | TGI (K-562 leukemia) | TGI (DU-145 prostate) | TGI (IGROV1 ovarian) | TGI (TK-10 renal) | TGI (A549 NSCLC) | TGI (MOLT-4 leukemia) | TGI (UACC-257 melanoma) | TGI (HOP-92 NSCLC) | TGI (SK-OV-3 ovarian) | TGI (NCI-H522 lung)
COC(=O)C1=C(O)c2ccc(Cl)cc2S(=O)(=O)N1C | > 100 µM | > 100 µM | > 100 µM | > 100 µM | > 100 µM | > 100 µM | > 100 µM | > 100 µM | > 100 µM | > 100 µM | > 100 µM | > 100 µM | > 100 µM | > 100 µM | > 100 µM | > 100 µM | > 100 µM | > 100 µM | > 100 µM
O=C(O)CCSC(CC1(c2ccc(Cl)cc2)NC(=O)CCS1)c1ccccc1 (stereo unspecified) | 32.1 µM | 14.1 µM | > 100 µM | 46.6 µM | 38.1 µM | 42.2 µM | > 59.4 µM | > 100 µM | 41.6 µM | > 100 µM | > 53.8 µM | 31.7 µM | 36 µM | > 63.1 µM | > 100 µM | 49.1 µM | 62.2 µM | 38 µM | 41.7 µM
C=C1CC/C=C(\C)CCC[C@H](C)[C@@H](O)[C@@H]2OC(=O)C(=C)[C@@H]2C[C@H]1O | 13.1 µM | 29.9 µM | 25.9 µM | 50.5 µM | 15.2 µM | 50.2 µM | 9.5 µM | > 21.9 µM | 22.1 µM | > 38.8 µM | 17.8 µM | 13.8 µM | 4.5 µM | 33.9 µM | 9.62 µM | 31.9 µM | 7.22 µM | > 64.1 µM | 4.96 µM
O=C1C=C(NCCOCCO)C(=O)c2c(O)ccc(O)c21 | 57.1 µM | > 100 µM | 30 µM | > 100 µM | 42.2 µM | 77.9 µM | 83 µM | 78 µM | 24.2 µM | 87.4 µM | > 100 µM | > 100 µM | > 100 µM | 73.6 µM | 79.7 µM | 38.4 µM | 51.3 µM | > 100 µM | 47.1 µM
CC(Oc1ccc(Cl)cc1Cl)C(=O)NN1C(=O)CSC1c1ccccc1 (stereo unspecified) | > 100 µM | > 100 µM | > 100 µM | > 100 µM | > 100 µM | > 100 µM | > 100 µM | > 100 µM | > 100 µM | > 100 µM | > 100 µM | > 100 µM | > 100 µM | > 100 µM | > 100 µM | > 100 µM | 83.8 µM | > 100 µM | > 100 µM
CC(C)=CCC/C(C)=C/CC/C(C)=C/CC(CO)N(C)CC/C=C(\C)CCC=C(C)C (stereo unspecified) | 14.8 µM | 14.5 µM | 7.56 µM | 22.6 µM | 14.4 µM | 14.5 µM | 23.8 µM | 10.1 µM | 8.75 µM | 3.7 µM | 23.7 µM | 16 µM | 22.7 µM | 17.5 µM | 6.69 µM | 19.3 µM | 8.85 µM | 28.9 µM | 3.89 µM
CCOC(=O)/C=C(/C(=O)OCC)n1cnc2c(=O)[nH]c(NC(C)=O)nc21 | > 100 µM | > 100 µM | > 100 µM | > 100 µM | > 100 µM | > 100 µM | > 100 µM | > 100 µM | > 100 µM | > 100 µM | > 100 µM | > 100 µM | > 100 µM | > 100 µM | > 100 µM | > 100 µM | > 100 µM | > 100 µM | > 100 µM
CSc1ccsc1-c1sc(-c2cc(SC)c(-c3sc(-c4cc(SC)c(-c5sccc5SC)s4)cc3SC)s2)cc1SC | > 100 µM | > 100 µM | > 100 µM | > 100 µM | > 100 µM | > 100 µM | > 100 µM | > 100 µM | 81.7 µM | > 100 µM | > 100 µM | > 100 µM | > 100 µM | > 100 µM | > 100 µM | > 100 µM | > 100 µM | > 100 µM | > 100 µM
COc1ccc(C[C@H]2COC(=O)[C@@H]2Cc2cccc(Br)c2)cc1OC | > 100 µM | 43.3 µM | 14.6 µM | 64.9 µM | 60.8 µM | 73.4 µM | 84.9 µM | 56.1 µM | 47.6 µM | > 100 µM | > 100 µM | > 100 µM | 82 µM | > 100 µM | 82.3 µM | 56.2 µM | 48.3 µM | 66.4 µM | 47.5 µM
O=C1NC(N/N=C\C(O)C(O)C(O)C(O)CO)=N/C1=C/c1ccc(Cl)cc1 (stereo unspecified) | > 100 µM | > 100 µM | > 100 µM | > 100 µM | > 100 µM | > 100 µM | > 100 µM | > 100 µM | > 100 µM | > 100 µM | > 100 µM | > 100 µM | > 100 µM | > 100 µM | > 100 µM | > 100 µM | > 100 µM | > 100 µM | > 100 µM
O=c1nc(N2CCNCC2)oc2cc(Cl)oc(=O)c12 | 15 µM | 15.5 µM | 5.89 µM | 35.7 µM | 12.9 µM | 16 µM | 23.5 µM | 5.62 µM | 14.5 µM | > 27.4 µM | 21.8 µM | 16.6 µM | 23.9 µM | 20.2 µM | 7.37 µM | 27.7 µM | 15.6 µM | 33.2 µM | 5.9 µM
NCC(=O)Nc1ccc(S(=O)(=O)O)c2cc(S(=O)(=O)O)cc(S(=O)(=O)O)c12 | > 100 µM | > 100 µM | > 100 µM | > 100 µM | > 100 µM | > 100 µM | > 100 µM | > 100 µM | > 100 µM | > 100 µM | > 100 µM | > 100 µM | > 100 µM | > 100 µM | > 100 µM | > 100 µM | > 100 µM | > 100 µM | > 100 µM
COc1ccc(-c2cc3ccccc3oc2=O)cc1OC | > 100 µM | > 100 µM | > 100 µM | > 100 µM | > 100 µM | > 100 µM | > 100 µM | > 100 µM | > 100 µM | > 100 µM | > 100 µM | > 100 µM | > 100 µM | > 100 µM | > 100 µM | > 100 µM | > 100 µM | 71 µM | > 100 µM
Cn1c2c(c3ccccc31)CCN1C(=O)CN(C(=O)C3CCCCC3)CC21 (stereo unspecified) | > 100 µM | > 100 µM | > 100 µM | > 100 µM | > 100 µM | > 100 µM | > 100 µM | > 100 µM | > 100 µM | > 100 µM | > 100 µM | > 100 µM | > 100 µM | > 100 µM | > 100 µM | > 100 µM | > 100 µM | > 100 µM | > 100 µM
COc1cccc2nc3c(C(=O)NCCN(C)C)cccc3cc12 | 11.2 µM | 13.6 µM | 2.49 µM | 9.27 µM | 7.61 µM | 5.46 µM | 2.85 µM | 19.1 µM | 4.4 µM | 13.9 µM | 14.4 µM | 11 µM | 10.8 µM | 4.49 µM | 21.2 µM | 5.01 µM | 11.2 µM | 4.94 µM | 3.42 µM
COCOC1C=CCCCC2=CC(C)=C(CC1)O2 (stereo unspecified) | > 100 µM | > 100 µM | > 100 µM | > 100 µM | > 100 µM | > 100 µM | > 100 µM | > 100 µM | > 100 µM | > 100 µM | > 100 µM | > 100 µM | > 100 µM | > 100 µM | > 100 µM | > 100 µM | > 100 µM | > 100 µM | > 100 µM
CCOC(=O)c1sc2c(c1OC(=O)c1ccc(OC)cc1)c(=O)n(-c1ccccc1)c(=S)n2-c1ccccc1 | > 100 µM | > 100 µM | > 100 µM | 54.2 µM | > 100 µM | > 100 µM | > 100 µM | > 100 µM | > 100 µM | > 100 µM | > 100 µM | > 100 µM | > 100 µM | > 100 µM | > 100 µM | > 100 µM | 63.4 µM | > 100 µM | 23 µM
[N-]=[N+]=CC(=O)OC1Cc2ccccc2C1 | > 100 µM | > 100 µM | > 100 µM | > 100 µM | > 100 µM | > 100 µM | 81.9 µM | > 100 µM | > 100 µM | > 100 µM | > 84.2 µM | > 100 µM | > 100 µM | > 100 µM | > 100 µM | > 100 µM | > 100 µM | > 100 µM | > 100 µM
COC(C)(C)OCCN1CCN(CCN2C3=C(C=C(C(C)=O)C3)Sc3ccccc32)CC1 | 40.9 µM | 32.6 µM | 42.2 µM | 52.4 µM | 33.2 µM | 35.2 µM | 35.5 µM | 32.8 µM | 36.6 µM | 32.2 µM | 68.8 µM | 35.5 µM | 34.6 µM | 96.7 µM | 36.7 µM | 36.9 µM | 92.9 µM | 79.8 µM | 33.2 µM
